Two molecules from patent publication US20070270429A1, “Function Inhibitor of Effector Cell” (priority 2003, published 2007) can be followed below.

The test system of this assay is human CD8-positive memory T cell. Nature of the assay: Cell growth inhibition test of human CD8-positive memory T cell (anti-CD3 antibody stimulation, BrdU uptake). The format is cell-based. Conditions: 48 hours. As to the method:
A heparinized blood sample was collected from a human, healthy volunteer, and peripheral blood mononuclear cell (PBMC) was isolated by a density gradient centrifugation. Specifically, a blood sample (33 ml) 2-fold diluted with physiological saline was overlaid on a medium for hemocyte separation use (10 ml) having a specific gravity of 1.077±0.001 g/ml contained in a centrifugation tube (LymphoPrep tube (Nycomed Pharma)) and centrifuged (3000×g, 10 minutes) at room temperature. The layer containing PBMC was recovered and washed twice with PBS to isolate PBMC.
CD8-positive T cell was isolated from PBMC by a negative selection method using Human T Cell CD8 Subset Column Kit (R & D Systems, Inc). Specifically, the cells to be removed such as B cell, CD4-positive T cell, and monocyte were labeled with antibodies by adding an antibody cocktail (1 ml) (attached to the kit) to PBMC (up to 2×10^8 cells) and incubating at room temperature for 15 minutes. The cells were washed twice with a column buffer (10 ml) (attached to the kit) and suspended in said column buffer (2 ml). The cell suspension was added to Human T Cell Subset Enrichment Column (attached to the kit) which had been equilibrated in advance using the column buffer (10 ml). By eluting with the column buffer (10 ml) after incubation at room temperature for 10 minutes, the CD8-positive T cell was obtained.
CD8-positive naive T cell and CD8-positive memory T cell were obtained by fractionating the CD8-positive T cell obtained by the above-described method using VarioMACS (Miltenyl Biotec). Specifically, a marker of naive T cell, CD45RA antigen, was labeled with antibody magnetic beads by adding 20 μl of CD45RA MicroBeads (Miltenyl Biotec) to 1×10^7 cells of the CD8-positive T cell, mixing them and incubating at 6 to 12° C. for 15 minutes. The cells were washed once with MACS buffer (PBS containing 2 mM EDTA and 0.5% bovine serum albumin (BSA)) (20 ml) (attached to the kit) and re-suspended in MACS buffer (0.5 ml). The cell suspension was added to an MS column (Miltenyl Biotec) which had been set to VarioMACS and equilibrated with MACS buffer (0.5 ml) in advance, and further washed with MACS buffer (0.5 ml×3 times). This washing solutions were recovered and used in the following test as the CD45RA-negative cell, namely CD8-positive memory T cell. Also, since the CD45RA-positive cell can be recovered by taking off the MS column from VarioMACS and eluting it with MACS buffer (1.5 ml), this was used in the following test as the CD8-positive naive T cell.
The cells fractionated by the method described in the above-described (2-1) were inoculated into a 96 well plate coated with an anti-human CD3 antibody, at a cell density of 2×10^5 cells/200 μl/well. The anti-human CD3 antibody-coated 96 well plate used herein was prepared by coating it with an anti-human CD3 antibody OKT-3 (0.1 μg/ml) overnight at 4° C. The cells were cultured for 48 hours in a CO2 incubator (5% CO2, humidity 95%) kept at 37° C. The cell growth was measured using Cell Proliferation ELISA, BrdU (Colorimetric) (Roche), using uptake of 5-bromo-2-deoxyuridine (BrdU) as the index. The operation method is shown below.
After treating the cells with BrdU for a predetermined period of time, the plate was centrifuged (300×g, 10 minutes), and then turned upside down and lightly shaken to remove the labeled medium. The plate was dried (for about 15 minutes) using a hair dryer. A cell fixing and DNA denaturing solution (200 μl, attached to the kit) was added to each well and left alone for 30 minutes. After removing the cell fixing and DNA denaturing solution and further removing water, a peroxidase-labeled anti-BrdU antibody (anti-BrdU-POD reaction solution) (100 μl) (attached to the kit) was added thereto and left alone at room temperature for 90 minutes. […]

`CCCCN1C(=O)[C@@H]([C@H](O)C2CCCCC2)NC(=O)C12CCN(Cc1ccc(Cc3ccc(C(=O)O)cc3OC)cc1)CC2` [Compound (b), 4-[4-({(3R)-1-butyl-3-[(R)-cyclohexyl(hydroxy)methyl]-2,5-dioxo-1,4,9-triazaspiro[5.5]undec-9-yl}methyl)benzyl]-3-methoxybenzoic acid]: the “inhibition ratio of cell growth” value (0.01 μM) is listed as −10.6%, the “inhibition ratio of cell growth” value (0.1 μM) was found to be 5.6%, the “inhibition ratio of cell growth” value (1 μM) was determined as 18.3% and the “inhibition ratio of cell growth” value (10 μM) is on record as 53.6%.
For `CCCCN1C(=O)[C@@H]([C@H](O)C2CCCCC2)NC(=O)C12CCN(Cc1ccc(Oc3ccc(C(=O)O)cc3OCC)cc1)CC2.Cl` [Compound (c), 4-[4-({(3R)-1-butyl-3-[(R)-cyclohexyl(hydroxy)methyl]-2,5-dioxo-1,4,9-triazaspiro[5.5]undec-9-yl}methyl)phenoxy]-3-ethoxybenzoic acid hydrochloride], the “inhibition ratio of cell growth” value came out at 9.2% (0.01 μM), 13.4% (0.1 μM), 18.8% (1 μM) and 39.6% (10 μM).
